Laboratory results reported in patent publication US7138361B2, “Herbicidal heterocycles” (E. I. du Pont de Nemours and Company, priority 2000, dated 2006).

Columns and labels:
Type in all cases: in vivo
[1] = tested on: barnyardgrass (Echinochloa crus-galli); assay: Test C flooded paddy test; conditions: for Barnyardgrass plant response rating: Flooded Paddy, scale 0 to 100, 0 no effect, 100 complete control; for Plant response rating, Barnyardgrass: flooded paddy test, scale 0 to 100 (0 no effect, 100 complete control)
How it was run: (§1)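 Rice and three paddy weeds were grown to the 2-leaf stage under flooded conditions, then treated and kept in a greenhouse for 12–14 days. Response was rated visually against untreated controls on a 0–100 scale, where 100 is complete control.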

[2] = tested on: rice (Oryza saliva); assay: Test C flooded paddy test; conditions: for Rice plant response rating: Flooded Paddy, scale 0 to 100, 0 no effect, 100 complete control; for Plant response rating, Rice: flooded paddy test, scale 0 to 100 (0 no effect, 100 complete control)
How it was run: as §1

[3] = tested on: Sunflower; assay: Test C preemergence; conditions: Rate 500 g/ha, visual evaluation after 12 to 14 days
[4] = tested on: yellow nutsedge (Cyperus esculentus); assay: Test C preemergence; conditions: for Plant response rating, Nutsedge: scale 0 to 100, 0 no effect, 100 complete control
How it was run: (§2)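 Preemergence: seeds sown then treated. Postemergence: plants 2–18 cm, 1- to 4-leaf. Both with surfactant-containing solvent formulation; visual injury scored 0–100 after 12–14 d.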

[5] = tested on: johnsongrass (Sorghum halepense); assay: Test C preemergence; conditions: for Plant response rating, Johnsongrass: scale 0 to 100, 0 no effect, 100 complete control; for Plant response rating (0 to 100), Johnsongrass: preemergence, visual evaluation after 12 to 14 days
How it was run: as §2

[6] = tested on: common ragweed (Ambrosia elatior); assay: Test C preemergence; conditions: for Plant response rating, Ragweed, Common: scale 0 to 100, 0 no effect, 100 complete control
How it was run: as §2

[7] = tested on: woolly cupgrass (Eriochloa villosa); assay: Test C preemergence; conditions: for Plant response rating, Cupgrass, Woolly: scale 0 to 100, 0 no effect, 100 complete control; for Plant response rating (0 to 100), Cupgrass, Woolly: preemergence, visual evaluation after 12 to 14 days
How it was run: as §2

[8] = tested on: morningglory (Ipomoea hederacea); assay: Test C preemergence; conditions: for Plant response rating, Morningglory: scale 0 to 100, 0 no effect, 100 complete control
How it was run: as §2

[9] = tested on: goosegrass (Eleusine indica); assay: Test C preemergence; conditions: for Plant response rating, Goosegrass: scale 0 to 100, 0 no effect, 100 complete control; for Plant response rating (0 to 100), Goosegrass: preemergence, visual evaluation after 12 to 14 days
How it was run: as §2

[10] = tested on: Surinam grass (Brachiaria decumbens); assay: Test C preemergence; conditions: for Plant response rating, Surinam grass: scale 0 to 100, 0 no effect, 100 complete control; for Plant response rating (0 to 100), Surinam grass: preemergence, visual evaluation after 12 to 14 days
How it was run: as §2

[11] = tested on: cocklebur (Xanthium strumarium); assay: Test C preemergence; conditions: for Plant response rating, Cocklebur: scale 0 to 100, 0 no effect, 100 complete control; for Plant response rating (0 to 100), Cocklebur: preemergence, visual evaluation after 12 to 14 days
How it was run: as §2

[12] = tested on: giant foxtail (Setaria faberii); assay: Test C preemergence; conditions: for Plant response rating, Foxtail, Giant: scale 0 to 100, 0 no effect, 100 complete control; for Plant response rating (0 to 100), Foxtail, Giant: preemergence, visual evaluation after 12 to 14 days
How it was run: as §2

[13] = tested on: Nightshade; assay: Test C preemergence; conditions: scale 0 to 100, 0 no effect, 100 complete control
[14] = tested on: pigweed (Amaranthus retroflexus); assay: Test C preemergence; conditions: for Plant response rating, Pigweed: scale 0 to 100, 0 no effect, 100 complete control
How it was run: as §2

[15] = tested on: lambsquarters (Chenopodium album); assay: Test C preemergence; conditions: for Plant response rating, Lambsquarters: scale 0 to 100, 0 no effect, 100 complete control
How it was run: as §2

[16] = tested on: soybean (Glycine max); assay: Test C preemergence; conditions: for Plant response rating, Soybean: scale 0 to 100, 0 no effect, 100 complete control
How it was run: as §2

[17] = tested on: kochia (Kochia scoparia); assay: Test C preemergence; conditions: for Plant response rating, Kochia: scale 0 to 100, 0 no effect, 100 complete control; for Plant response rating (0 to 100), Kochia: preemergence, visual evaluation after 12 to 14 days
How it was run: as §2

[18] = tested on: Sunflower; assay: Test C preemergence; conditions: Rate 125 g/ha; scale 0 to 100, 0 no effect, 100 complete control
[19] = tested on: velvetleaf (Abutilon theophrasti); assay: Test C preemergence; conditions: for Plant response rating, Velvetleaf: scale 0 to 100, 0 no effect, 100 complete control
How it was run: as §2

[20] = tested on: bermudagrass (Cynodon dactylon); assay: Test C preemergence; conditions: for Plant response rating, Bermudagrass: scale 0 to 100, 0 no effect, 100 complete control; for Plant response rating (0 to 100 where 0 is no effect and 100 is complete control), Bermudagrass: preemergence, visual evaluation after 12 to 14 days
How it was run: as §2

[21] = tested on: crabgrass (Digitaria sanguinalis); assay: Test C preemergence; conditions: for Plant response rating, Crabgrass: scale 0 to 100, 0 no effect, 100 complete control; for Plant response rating (0 to 100), Crabgrass: preemergence, visual evaluation after 12 to 14 days
How it was run: as §2

[22] = tested on: corn (Zea mays); assay: Test C preemergence; conditions: for Plant response rating, Corn: scale 0 to 100, 0 no effect, 100 complete control; for Plant response rating (0 to 100), Corn: preemergence, visual evaluation after 12 to 14 days
How it was run: as §2

[23] = preemergence, Rate 500 g/ha, visual evaluation after 12 to 14 days

Structure (SMILES): CC(C)Oc1cccc(N2CCC(n3ccc(C(C)C)n3)C2=O)c1 (centres unmarked) [Compound 82]
- Barnyardgrass plant response rating ([1]; Rate 250 g/ha): 100
- Barnyardgrass plant response rating ([1]; Rate 500 g/ha): 100
- Plant response rating, Barnyardgrass ([1]; Rate 62 g/ha): 30
- Plant response rating, Barnyardgrass ([1]; Rate 125 g/ha): 60
- Rice plant response rating ([2]; Rate 250 g/ha): 60
- Rice plant response rating ([2]; Rate 500 g/ha): 80
- Plant response rating, Rice ([2]; Rate 62 g/ha): 0
- Plant response rating, Rice ([2]; Rate 125 g/ha): 30
- Plant response rating (0 to 100), Sunflower [3]: 80
- Plant response rating, Nutsedge ([4]; Rate 62 g/ha): 0
- Plant response rating, Nutsedge ([4]; Rate 125 g/ha): 0
- Plant response rating (0 to 100), Nutsedge [4, 23]: 40
- Plant response rating, Nutsedge ([4]; preemergence, Rate 250 g/ha): 10
- Plant response rating, Johnsongrass ([5]; Rate 62 g/ha): 40
- Plant response rating, Johnsongrass ([5]; Rate 125 g/ha): 50
- Plant response rating (0 to 100), Johnsongrass ([5]; Rate 250 g/ha): 50
- Plant response rating (0 to 100), Johnsongrass ([5]; Rate 500 g/ha): 60
- Plant response rating, Ragweed, Common ([6]; Rate 125 g/ha): 0
- Plant response rating (0 to 100), Ragweed, Common [6, 23]: 100
- Plant response rating, Ragweed, Common ([6]; preemergence, Rate 250 g/ha): 50
- Plant response rating, Cupgrass, Woolly ([7]; Rate 62 g/ha): 70
- Plant response rating, Cupgrass, Woolly ([7]; Rate 125 g/ha): 90
- Plant response rating (0 to 100), Cupgrass, Woolly ([7]; Rate 250 g/ha): 90
- Plant response rating (0 to 100), Cupgrass, Woolly ([7]; Rate 500 g/ha): 100
- Plant response rating, Morningglory ([8]; Rate 62 g/ha): 20
- Plant response rating, Morningglory ([8]; Rate 125 g/ha): 10
- Plant response rating (0 to 100), Morningglory [8, 23]: 80
- Plant response rating, Morningglory ([8]; preemergence, Rate 250 g/ha): 20
- Plant response rating, Goosegrass ([9]; Rate 62 g/ha): 90
- Plant response rating, Goosegrass ([9]; Rate 125 g/ha): 100
- Plant response rating (0 to 100), Goosegrass ([9]; Rate 250 g/ha): 100
- Plant response rating (0 to 100), Goosegrass ([9]; Rate 500 g/ha): 100
- Plant response rating, Surinam grass ([10]; Rate 62 g/ha): 10
- Plant response rating, Surinam grass ([10]; Rate 125 g/ha): 80
- Plant response rating (0 to 100), Surinam grass ([10]; Rate 250 g/ha): 70
- Plant response rating (0 to 100), Surinam grass ([10]; Rate 500 g/ha): 100
- Plant response rating, Cocklebur ([11]; Rate 62 g/ha): 0
- Plant response rating, Cocklebur ([11]; Rate 125 g/ha): 10
- Plant response rating (0 to 100), Cocklebur ([11]; Rate 250 g/ha): 20
- Plant response rating (0 to 100), Cocklebur ([11]; Rate 500 g/ha): 40
- Plant response rating, Foxtail, Giant ([12]; Rate 62 g/ha): 30
- Plant response rating, Foxtail, Giant ([12]; Rate 125 g/ha): 0
- Plant response rating (0 to 100), Foxtail, Giant ([12]; Rate 250 g/ha): 100
- Plant response rating (0 to 100), Foxtail, Giant ([12]; Rate 500 g/ha): 100
- Plant response rating, Nightshade ([13]; Rate 62 g/ha): 0
- Plant response rating, Nightshade ([13]; Rate 125 g/ha): 10
- Plant response rating, Nightshade ([13]; Rate 250 g/ha): 30
- Plant response rating, Pigweed ([14]; Rate 125 g/ha): 70
- Plant response rating (0 to 100), Pigweed [14, 23]: 0
- Plant response rating, Pigweed ([14]; preemergence, Rate 250 g/ha): 100
- Plant response rating, Lambsquarters ([15]; Rate 62 g/ha): 100
- Plant response rating, Lambsquarters ([15]; Rate 125 g/ha): 100
- Plant response rating (0 to 100), Lambsquarters [15, 23]: 100
- Plant response rating, Lambsquarters ([15]; preemergence, Rate 250 g/ha): 100
- Plant response rating, Soybean ([16]; Rate 125 g/ha): 10
- Plant response rating (0 to 100), Soybean [16, 23]: 60
- Plant response rating, Soybean ([16]; preemergence, Rate 250 g/ha): 30
- Plant response rating, Kochia ([17]; Rate 62 g/ha): 0
- Plant response rating, Kochia ([17]; Rate 125 g/ha): 90
- Plant response rating (0 to 100), Kochia ([17]; Rate 250 g/ha): 100
- Plant response rating (0 to 100), Kochia ([17]; Rate 500 g/ha): 100
- Plant response rating, Sunflower [18]: 20
- Plant response rating, Velvetleaf ([19]; Rate 125 g/ha): 10
- Plant response rating (0 to 100), Velvetleaf [19, 23]: 30
- Plant response rating, Velvetleaf ([19]; preemergence, Rate 250 g/ha): 10
- Plant response rating, Bermudagrass ([20]; Rate 62 g/ha): 100
- Plant response rating, Bermudagrass ([20]; Rate 125 g/ha): 90
- Plant response rating (0 to 100 where 0 is no effect and 100 is complete control), Bermudagrass ([20]; Rate 250 g/ha): 100
- Plant response rating (0 to 100 where 0 is no effect and 100 is complete control), Bermudagrass ([20]; Rate 500 g/ha): 100
- Plant response rating, Crabgrass ([21]; Rate 62 g/ha): 100
- Plant response rating, Crabgrass ([21]; Rate 125 g/ha): 100
- Plant response rating (0 to 100), Crabgrass ([21]; Rate 250 g/ha): 100
- Plant response rating (0 to 100), Crabgrass ([21]; Rate 500 g/ha): 100
- Plant response rating, Corn ([22]; Rate 62 g/ha): 0
- Plant response rating, Corn ([22]; Rate 125 g/ha): 20
- Plant response rating (0 to 100), Corn ([22]; Rate 250 g/ha): 10
- Plant response rating (0 to 100), Corn ([22]; Rate 500 g/ha): 30
